# Data reported in US20110151020A1, “ACTIVE SUBSTANCE COMBINATION WITH GEMCITABINE FOR THE TREATMENT OF EPITHELIAL CANCER” (priority 2008, published 2011).
# Legend:
# [1] = tested on: orthotopically implanted tumour cells; test: In vivo treatment of orthotopic tumours with Gemcitabine and SB431542; design: species or system mice
# Method: Seven days after orthotopic implantation of tumour cells, therapy with either Gemcitabine alone or in combination with targeted Nodal/Activin inhibition by SB431542 was initiated. The double combination therapy was stopped after 14 days of treatment, the single Gemcitabine treatment was continued until sacrifice of the animals. 35 days after tumour cell treatment, PET scans were done and evaluation of tumour volume was performed on day 42.
# pancreatic cancer cells = test: Transmigration assay (modified Boyden chamber, SDF-1 stimulus); format: cell-based, human; conditions: SDF-1 as migratory stimulus
# [2] = tested on: CD133+ pancreatic cancer stem cells (L3.6pl cells); test: CD133 content by flow cytometry in L3.6pl pancreatic cancer cells; format: cell-based, human; conditions: 48 hours of therapy; Gemcitabine 100 ng/ml
# Method: In this experiment, potentially effective substances for the targeted elimination of CD133^+ pancreatic cancer stem cells (CSC) were screened by means of flow cytometry following 48 hours of therapy. […] As a Gemcitabine concentration of 100 ng/ml was the lowest concentration capable of achieving a strong relative enrichment for CD133^+ cells through depletion of CD133^− cells, this concentration was chosen for subsequent experiments.
# Human pancreatic cancer cell line. The highly metastatic human pancreatic cell line L3.6pl was maintained in DMEM medium (Invitrogen, Karlsruhe, Germany) with 12% Fetal Calf Serum (Biochrom, Berlin, Germany), Glutamax (Invitrogen), non-essential amino acids, and vitamins (all from PAN, Aidenbach, Germany) (Hermann et al., 2007, supra). Cultures were kept no longer than 4 weeks after recovery from frozen stocks. CSC spheres were cultured in DMEM-F12 supplemented with B27 (Gibco, Karlsruhe, Germany) and FGF-2 (PeproTech EC, London, United Kingdom) (Hermann et al., 2007, supra).
# Cytometry. Pancreatic CSC were identified by CD133/1-APC or CD133-PE (Miltenyi, Bergisch-Gladbach, Germany) (Hermann et al., 2007, supra). Side population experiments were performed as described by Goodell et al. (1996) (see Goodell et al., 1996, J Exp Med 183, 1797-1806) and cells were identified by exclusion of the vital dye Hoechst 33342. To detect activation of the PI3K/Akt/mTOR pathway by means of the phosphorylation status of the s6 ribosomal protein (s6rp), cells cultivated with standard medium were stained with a rabbit anti-phospho-S6 ribosomal protein antibody (Cell Signalling Technology, Danvers, Mass.).
# In vitro treatment of pancreatic cancer cells. […] For the evaluation of the in vivo tumorigenicity, […] L3.6pl cells were pretreated with the respective regimen and the remaining viable cells were orthotopically implanted into the pancreas of nude mice and evaluated on day 35. For the systemic infusion assay, cells were labelled with the Qtracker 800 labelling kit (Invitrogen) according to the manufacturer's instructions, and 5×10^5 cells were injected intravenously into mice. After 4 weeks, explanted lungs were scanned for metastases with a near-infrared imaging platform (Odyssey, Li-cor, Lincoln, Nebr.). Positive signals were verified by histology (H&E staining).
# Using SB431542, a specific inhibitor of the receptors for Nodal and Activin, ALK-4 and -7 respectively, it was investigated whether the content of the CD133(+) population is affected by inhibition of Activin/Nodal signaling. As mutations affecting the TGF-superfamily pathway are very common in pancreatic neoplasms, pancreatic cell lines harboring different mutations in this pathway were screened (Table 1).
# [3] = tested on: primary human pancreatic cancer tissue; test: In vivo treatment of implanted patient pancreatic tumor tissue with gemcitabine plus SB431542; design: species or system mice; conditions: treatment from day 7, assessed day 28
# Method: FIG. 33: In vivo treatment with the Alk4/7 inhibitor SB431542. This illustrates Nodal/Activin inhibition to eliminate primary human pancreatic CSC in vivo. Tumor tissue from patient with pancreatic cancer was implanted into immunocompromised mice. Treatment was started on day 7 after implantation. Mice were randomized to gemcitabine alone or gemcitabine plus SB431542. Tumor growth was assessed on day 28.
compound,measurement,setting,value
"Nc1ccn(C2OC(CO)C(O)C2(F)F)c(=O)n1 (centres unmarked) [Gemcitabine, 4-amino-1-[3,3-difluoro-4-hydroxy-5-(hydroxymethyl)tetrahydrofuran-2-yl]-1H-pyrimidin-2-one]",tumour size,"[1]; mouse, in vivo",reduction of tumour size
same,tumour formation / tumour incidence,"[1]; therapy from day 7, combination 14 days, PET day 35, volume day 42",unaffected
same,migratory activity,pancreatic cancer cells,unable to significantly reduce
same,CD133+ cell content,[2],marked enrichment
same,tumor response / regression,[3],strong response
